Test results as given in ChEMBL document CHEMBL1201862, “PubChem BioAssay data set” (2004).
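Cultured in 96-well plates, cells were exposed to test compound for 48 hours across five concentrations. GI50 marks 50% less growth.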 Calls of active or inactive are those of the source. Rule as the data show it: active = GI50 up to about 1.1 µM and inactive = higher.

What was measured:
Assay in all cases: growth of human tumour cells (NCI), 48 h
HCC 2998 = tested on: HCC 2998
M14 = tested on: M14
OVCAR-8 = tested on: OVCAR-8
UO-31 = tested on: UO-31
DU-145 = tested on: DU-145
SK-MEL-28 = tested on: SK-MEL-28
T47D = tested on: T47D
COLO 205 = tested on: COLO 205
SW-620 = tested on: SW-620
OVCAR-3 = tested on: OVCAR-3
MOLT-4 = tested on: MOLT-4
UACC-62 = tested on: UACC-62
MDA-MB-231 = tested on: MDA-MB-231
U-251 = tested on: U-251
Malme-3M = tested on: Malme-3M
A549 = tested on: A549
CAKI-1 = tested on: CAKI-1
PC-3 = tested on: PC-3
HT-29 = tested on: HT-29
A498 = tested on: A498
LOX IMVI = tested on: LOX IMVI
HOP-92 = tested on: HOP-92
NCI-H522 = tested on: NCI-H522
SF-295 = tested on: SF-295
SK-MEL-2 = tested on: SK-MEL-2
SK-OV-3 = tested on: SK-OV-3
HCT-15 = tested on: HCT-15
NCI-H23 = tested on: NCI-H23
CCRF-CEM = tested on: CCRF-CEM
UACC-257 = tested on: UACC-257
NCI-H226 = tested on: NCI-H226
SK-MEL-5 = tested on: SK-MEL-5
SF-539 = tested on: SF-539
EKVX = tested on: EKVX
IGROV-1 = tested on: IGROV-1
MDA-MB-435 = tested on: MDA-MB-435
K562 = tested on: K562
ACHN = tested on: ACHN
HCT-116 = tested on: HCT-116
TK-10 = tested on: TK-10
SNB-19 = tested on: SNB-19
Hs-578T = tested on: Hs-578T
MDA-N = tested on: MDA-N
SNB-75 = tested on: SNB-75
SN12C = tested on: SN12C
HOP-62 = tested on: HOP-62
OVCAR-5 = tested on: OVCAR-5
786-0 = tested on: 786-0
KM12 = tested on: KM12
NCI/ADR-RES = tested on: NCI/ADR-RES
NCI-H460 = tested on: NCI-H460
SF-268 = tested on: SF-268
OVCAR-4 = tested on: OVCAR-4
RPMI-8226 = tested on: RPMI-8226
RXF 393 = tested on: RXF 393
HL-60 = tested on: HL-60
MCF7 = tested on: MCF7

With `CCOC(=O)CNc1nc(=O)c2c(=O)oc(Cl)cc2o1` the GI50 (HCC 2998) was 15.6 µM (inactive), the GI50 (M14) was 17.9 µM (inactive) and the GI50 (OVCAR-8) was 11.2 µM (inactive). The GI50 (UO-31) was 12.8 µM (inactive), the GI50 (DU-145) was 29 µM (inactive) and the GI50 (SK-MEL-28) was 22.9 µM (inactive). For the same molecule, the GI50 (T47D) was 18.9 µM (inactive), the GI50 (COLO 205) was 16.7 µM (inactive) and the GI50 (SW-620) was 8.81 µM (inactive). The GI50 (OVCAR-3) was 12.9 µM (inactive), the GI50 (MOLT-4) was 12.6 µM (inactive) and the GI50 (UACC-62) was 18.2 µM (inactive). For the same molecule, the GI50 (MDA-MB-231) was 21.6 µM (inactive), the GI50 (U-251) was 24.8 µM (inactive) and the GI50 (Malme-3M) was 11.4 µM (inactive). The GI50 (A549) was 18.3 µM (inactive), the GI50 (CAKI-1) was 12.9 µM (inactive) and the GI50 (PC-3) was 13.2 µM (inactive). For the same molecule, the GI50 (HT-29) was 10.7 µM (inactive), the GI50 (A498) was 17.5 µM (inactive) and the GI50 (LOX IMVI) was 10.5 µM (inactive). The GI50 (HOP-92) was 3.69 µM (inactive), the GI50 (NCI-H522) was 2.7 µM (inactive) and the GI50 (SF-295) was 25 µM (inactive). The GI50 (SK-MEL-2) was 17.2 µM (inactive), the GI50 (SK-OV-3) was > 100 µM (inactive) and the GI50 (HCT-15) was 10 µM. For the same molecule, the GI50 (NCI-H23) was 19.1 µM (inactive), the GI50 (CCRF-CEM) was 5.82 µM (inactive) and the GI50 (UACC-257) was 17.5 µM (inactive). For the same molecule, the GI50 (NCI-H226) was > 100 µM (inactive), the GI50 (SK-MEL-5) was 27.1 µM (inactive) and the GI50 (SF-539) was 6.79 µM (inactive). The GI50 (EKVX) was 16.1 µM (inactive), the GI50 (IGROV-1) was 10.1 µM (inactive) and the GI50 (MDA-MB-435) was 15.7 µM (inactive). The GI50 (K562) was 6.25 µM (inactive), the GI50 (ACHN) was 13.5 µM (inactive) and the GI50 (HCT-116) was 12.1 µM (inactive). For the same molecule, the GI50 (TK-10) was 13.6 µM (inactive), the GI50 (SNB-19) was 33.3 µM (inactive) and the GI50 (Hs-578T) was 19.3 µM (inactive). The GI50 (MDA-N) was 14.2 µM (inactive), the GI50 (SNB-75) was 11 µM (inactive) and the GI50 (SN12C) was 18.4 µM (inactive). For the same molecule, the GI50 (HOP-62) was 25.4 µM (inactive), the GI50 (OVCAR-5) was 18.5 µM (inactive) and the GI50 (786-0) was 10.2 µM (inactive). For the same molecule, the GI50 (KM12) was 22.1 µM (inactive), the GI50 (NCI/ADR-RES) was 21.4 µM (inactive) and the GI50 (NCI-H460) was 16.6 µM (inactive). For the same molecule, the GI50 (SF-268) was 14.7 µM (inactive) and the GI50 (OVCAR-4) was 17.6 µM (inactive).

With `CC1(C)SCc2nc3ccccc3n21` the GI50 (HCC 2998) was > 100 µM (inactive), the GI50 (M14) was > 100 µM (inactive) and the GI50 (OVCAR-8) was > 100 µM (inactive). The GI50 (UO-31) was > 100 µM (inactive), the GI50 (DU-145) was > 100 µM (inactive) and the GI50 (SK-MEL-28) was > 100 µM (inactive). The GI50 (T47D) was > 100 µM (inactive), the GI50 (COLO 205) was > 100 µM (inactive) and the GI50 (SW-620) was > 100 µM (inactive). For the same molecule, the GI50 (OVCAR-3) was > 100 µM (inactive), the GI50 (MOLT-4) was > 100 µM (inactive) and the GI50 (UACC-62) was > 100 µM (inactive). The GI50 (MDA-MB-231) was > 100 µM (inactive), the GI50 (U-251) was > 100 µM (inactive) and the GI50 (Malme-3M) was > 100 µM (inactive). For the same molecule, the GI50 (A549) was > 100 µM (inactive), the GI50 (CAKI-1) was > 100 µM (inactive) and the GI50 (PC-3) was > 100 µM (inactive). For the same molecule, the GI50 (HT-29) was > 100 µM (inactive), the GI50 (A498) was > 100 µM (inactive) and the GI50 (RPMI-8226) was > 100 µM (inactive). The GI50 (LOX IMVI) was > 100 µM (inactive), the GI50 (HOP-92) was > 100 µM (inactive) and the GI50 (NCI-H522) was > 100 µM (inactive). For the same molecule, the GI50 (SF-295) was > 100 µM (inactive), the GI50 (SK-MEL-2) was > 100 µM (inactive) and the GI50 (SK-OV-3) was > 100 µM (inactive). The GI50 (HCT-15) was > 100 µM, the GI50 (NCI-H23) was > 100 µM (inactive) and the GI50 (CCRF-CEM) was > 100 µM (inactive). For the same molecule, the GI50 (UACC-257) was > 100 µM (inactive), the GI50 (NCI-H226) was 89.9 µM (inactive) and the GI50 (SK-MEL-5) was > 100 µM (inactive). For the same molecule, the GI50 (SF-539) was > 100 µM (inactive), the GI50 (EKVX) was > 100 µM (inactive) and the GI50 (IGROV-1) was > 100 µM (inactive). For the same molecule, the GI50 (MDA-MB-435) was > 100 µM (inactive), the GI50 (K562) was > 100 µM (inactive) and the GI50 (RXF 393) was > 100 µM (inactive). The GI50 (ACHN) was > 100 µM (inactive), the GI50 (HCT-116) was > 100 µM (inactive) and the GI50 (TK-10) was > 100 µM (inactive). For the same molecule, the GI50 (SNB-19) was > 100 µM (inactive), the GI50 (Hs-578T) was > 100 µM (inactive) and the GI50 (MDA-N) was > 100 µM (inactive). The GI50 (SNB-75) was 0.0119 µM (active), the GI50 (SN12C) was > 100 µM (inactive) and the GI50 (HOP-62) was > 100 µM (inactive). The GI50 (OVCAR-5) was > 100 µM (inactive), the GI50 (786-0) was > 100 µM (inactive) and the GI50 (KM12) was > 100 µM (inactive). For the same molecule, the GI50 (NCI/ADR-RES) was > 100 µM (inactive), the GI50 (NCI-H460) was > 100 µM (inactive) and the GI50 (HL-60) was > 100 µM (inactive). For the same molecule, the GI50 (MCF7) was > 100 µM (inactive), the GI50 (SF-268) was > 100 µM (inactive) and the GI50 (OVCAR-4) was > 100 µM (inactive).
